Legend:
Histone deacetylase 2 = Histone deacetylase 2 (Homo sapiens, UniProt Q92769); assay: Inhibition of human HDAC2 pre-incubated for 30 mins before substrate addition and measured after 30 mins by HDAC-Glo I/II assay
[1] = target: T1, Protein deacetylase HDAC6 (Homo sapiens, UniProt Q9UBN7); assay: Inhibition of human HDAC6 pre-incubated for 30 mins before substrate addition and measured after 30 mins by HDAC-Glo I/II assay
T1 sequence (Q9UBN7 whole entry): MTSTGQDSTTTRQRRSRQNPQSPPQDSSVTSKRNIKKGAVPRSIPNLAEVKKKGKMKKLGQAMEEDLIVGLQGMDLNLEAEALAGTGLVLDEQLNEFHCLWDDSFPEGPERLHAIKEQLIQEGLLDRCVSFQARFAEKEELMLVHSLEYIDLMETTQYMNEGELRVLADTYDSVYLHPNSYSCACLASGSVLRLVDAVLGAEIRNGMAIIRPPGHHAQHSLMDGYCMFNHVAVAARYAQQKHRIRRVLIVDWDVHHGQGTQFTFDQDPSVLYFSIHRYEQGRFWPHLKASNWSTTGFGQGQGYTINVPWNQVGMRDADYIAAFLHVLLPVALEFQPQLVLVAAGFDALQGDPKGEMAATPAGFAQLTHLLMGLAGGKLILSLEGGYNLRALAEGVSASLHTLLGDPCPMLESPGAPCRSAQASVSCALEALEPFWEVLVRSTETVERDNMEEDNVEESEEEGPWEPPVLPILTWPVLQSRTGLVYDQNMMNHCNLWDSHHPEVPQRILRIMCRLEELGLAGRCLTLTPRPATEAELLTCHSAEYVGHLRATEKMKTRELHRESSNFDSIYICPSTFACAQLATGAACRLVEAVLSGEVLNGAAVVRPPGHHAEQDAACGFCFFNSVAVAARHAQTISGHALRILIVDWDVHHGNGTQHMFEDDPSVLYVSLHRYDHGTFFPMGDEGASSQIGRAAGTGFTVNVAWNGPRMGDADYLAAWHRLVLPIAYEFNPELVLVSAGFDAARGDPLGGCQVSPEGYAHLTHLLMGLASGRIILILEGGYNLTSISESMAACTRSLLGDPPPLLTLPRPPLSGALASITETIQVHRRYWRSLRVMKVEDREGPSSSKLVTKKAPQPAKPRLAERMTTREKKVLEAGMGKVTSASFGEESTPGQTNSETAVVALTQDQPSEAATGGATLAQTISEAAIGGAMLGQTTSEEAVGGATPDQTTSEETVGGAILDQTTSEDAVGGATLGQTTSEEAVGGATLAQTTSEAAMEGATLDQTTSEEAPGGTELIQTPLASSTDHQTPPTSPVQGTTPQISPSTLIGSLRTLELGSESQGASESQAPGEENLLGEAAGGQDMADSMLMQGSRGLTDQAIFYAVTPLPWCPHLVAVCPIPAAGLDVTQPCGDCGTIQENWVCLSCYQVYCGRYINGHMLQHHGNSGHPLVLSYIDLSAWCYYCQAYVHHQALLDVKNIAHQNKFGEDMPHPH

Histone deacetylase 9 = Histone deacetylase 9 (Homo sapiens, UniProt Q9UKV0); assay: Inhibition of human HDAC9 pre-incubated for 30 mins before substrate addition and measured after 30 mins by HDAC-Glo I/II assay
Histone deacetylase 8 = target: T2, Histone deacetylase 8 (Homo sapiens, UniProt Q9BY41); assay: Inhibition of human HDAC8 pre-incubated for 30 mins before substrate addition and measured after 30 mins by HDAC-Glo I/II assay
T2 sequence (Q9BY41 whole entry): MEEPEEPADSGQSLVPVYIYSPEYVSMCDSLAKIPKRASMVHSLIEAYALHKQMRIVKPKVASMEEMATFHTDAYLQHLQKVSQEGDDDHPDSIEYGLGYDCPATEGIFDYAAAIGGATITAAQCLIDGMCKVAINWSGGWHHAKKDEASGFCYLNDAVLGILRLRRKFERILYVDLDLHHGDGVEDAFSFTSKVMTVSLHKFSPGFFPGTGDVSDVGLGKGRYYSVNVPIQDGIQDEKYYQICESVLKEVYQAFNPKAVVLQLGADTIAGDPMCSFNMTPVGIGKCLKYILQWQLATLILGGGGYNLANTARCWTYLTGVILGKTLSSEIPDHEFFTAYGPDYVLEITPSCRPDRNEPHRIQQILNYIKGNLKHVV

[2] = target: T3, Histone deacetylase (Rattus norvegicus) (UniProt Q6P6W3+Q99P99+Q99P96+Q4QQW4+Q99P97+Q5RJZ2+B1WBY8); settings: at 0.1 µM
Description: Inhibition of rat liver HDAC at 0.1 uM pre-incubated for 15 mins before Boc-Lys(Ac)-AMC substrate addition and measured after 30 mins by fluorometry

Histone deacetylase 1 = Histone deacetylase 1 (Homo sapiens, UniProt Q13547); assay: Inhibition of human HDAC1 pre-incubated for 30 mins before substrate addition and measured after 30 mins by HDAC-Glo I/II assay
[3] = target: T3, Histone deacetylase (Rattus norvegicus); settings: at 10 µM
Description: Inhibition of rat liver HDAC at 10 uM pre-incubated for 15 mins before Boc-Lys(Ac)-AMC substrate addition and measured after 30 mins by fluorometry

Histone deacetylase 4 = Histone deacetylase 4 (Homo sapiens, UniProt P56524); assay: Inhibition of human HDAC4 pre-incubated for 30 mins before substrate addition and measured after 30 mins by HDAC-Glo I/II assay
Histone deacetylase 3 = Histone deacetylase 3 (Homo sapiens, UniProt O15379); assay: Inhibition of human HDAC3 pre-incubated for 30 mins before substrate addition and measured after 30 mins by HDAC-Glo I/II assay
Chain of Histone deacetylase 3 (O15379 whole entry): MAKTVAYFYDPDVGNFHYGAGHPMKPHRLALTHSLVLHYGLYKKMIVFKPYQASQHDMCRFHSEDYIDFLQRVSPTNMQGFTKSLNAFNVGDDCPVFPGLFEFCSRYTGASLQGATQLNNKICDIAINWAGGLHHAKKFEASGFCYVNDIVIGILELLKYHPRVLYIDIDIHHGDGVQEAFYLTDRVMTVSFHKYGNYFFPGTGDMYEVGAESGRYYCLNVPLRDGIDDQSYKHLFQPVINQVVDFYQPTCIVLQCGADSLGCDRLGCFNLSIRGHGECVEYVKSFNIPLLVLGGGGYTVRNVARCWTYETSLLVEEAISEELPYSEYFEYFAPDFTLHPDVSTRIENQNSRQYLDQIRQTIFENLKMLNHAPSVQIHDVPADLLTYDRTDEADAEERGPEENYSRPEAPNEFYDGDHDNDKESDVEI

Chain of Histone deacetylase 2 (Q92769 whole entry): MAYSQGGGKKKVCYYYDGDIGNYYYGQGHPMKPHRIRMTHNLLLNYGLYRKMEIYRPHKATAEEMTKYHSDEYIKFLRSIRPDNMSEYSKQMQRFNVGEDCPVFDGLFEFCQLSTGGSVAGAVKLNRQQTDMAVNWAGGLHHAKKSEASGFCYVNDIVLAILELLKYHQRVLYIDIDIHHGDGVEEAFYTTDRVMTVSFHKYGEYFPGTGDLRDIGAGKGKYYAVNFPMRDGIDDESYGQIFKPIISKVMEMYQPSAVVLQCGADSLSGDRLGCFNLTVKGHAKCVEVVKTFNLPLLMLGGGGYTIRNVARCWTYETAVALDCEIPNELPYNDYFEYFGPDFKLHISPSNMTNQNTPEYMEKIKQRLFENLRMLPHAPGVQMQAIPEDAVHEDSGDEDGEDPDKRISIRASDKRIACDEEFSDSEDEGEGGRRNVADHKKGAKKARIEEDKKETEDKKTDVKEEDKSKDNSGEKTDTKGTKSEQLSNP
Chain of Histone deacetylase 9 (Q9UKV0 whole entry): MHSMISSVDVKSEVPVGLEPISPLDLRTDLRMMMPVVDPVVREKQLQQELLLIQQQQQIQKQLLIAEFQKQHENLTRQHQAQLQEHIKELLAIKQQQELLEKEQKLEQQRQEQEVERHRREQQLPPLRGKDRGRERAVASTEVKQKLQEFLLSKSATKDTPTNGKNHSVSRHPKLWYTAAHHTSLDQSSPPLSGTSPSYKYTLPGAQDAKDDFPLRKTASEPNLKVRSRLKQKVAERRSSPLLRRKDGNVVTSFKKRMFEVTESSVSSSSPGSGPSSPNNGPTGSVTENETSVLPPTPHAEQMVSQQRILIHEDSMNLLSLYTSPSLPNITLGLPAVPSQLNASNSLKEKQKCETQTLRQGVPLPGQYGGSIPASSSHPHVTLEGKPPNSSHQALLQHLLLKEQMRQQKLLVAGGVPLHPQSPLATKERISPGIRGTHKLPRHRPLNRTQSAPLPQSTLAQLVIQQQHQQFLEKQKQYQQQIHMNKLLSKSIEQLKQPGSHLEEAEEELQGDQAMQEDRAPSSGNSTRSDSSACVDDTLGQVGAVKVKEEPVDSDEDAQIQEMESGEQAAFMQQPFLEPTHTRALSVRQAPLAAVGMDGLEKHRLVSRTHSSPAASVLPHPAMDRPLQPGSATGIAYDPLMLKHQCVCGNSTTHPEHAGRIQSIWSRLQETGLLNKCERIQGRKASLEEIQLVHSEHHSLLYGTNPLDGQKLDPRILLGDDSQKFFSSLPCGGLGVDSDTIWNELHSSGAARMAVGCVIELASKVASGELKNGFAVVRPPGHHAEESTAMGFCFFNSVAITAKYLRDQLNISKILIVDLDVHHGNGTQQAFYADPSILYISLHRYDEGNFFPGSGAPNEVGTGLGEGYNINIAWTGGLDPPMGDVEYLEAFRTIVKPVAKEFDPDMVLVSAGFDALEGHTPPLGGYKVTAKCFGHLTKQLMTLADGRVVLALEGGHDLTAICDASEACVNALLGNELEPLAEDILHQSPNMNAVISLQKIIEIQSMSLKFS
Chain of Histone deacetylase 4 (P56524 whole entry): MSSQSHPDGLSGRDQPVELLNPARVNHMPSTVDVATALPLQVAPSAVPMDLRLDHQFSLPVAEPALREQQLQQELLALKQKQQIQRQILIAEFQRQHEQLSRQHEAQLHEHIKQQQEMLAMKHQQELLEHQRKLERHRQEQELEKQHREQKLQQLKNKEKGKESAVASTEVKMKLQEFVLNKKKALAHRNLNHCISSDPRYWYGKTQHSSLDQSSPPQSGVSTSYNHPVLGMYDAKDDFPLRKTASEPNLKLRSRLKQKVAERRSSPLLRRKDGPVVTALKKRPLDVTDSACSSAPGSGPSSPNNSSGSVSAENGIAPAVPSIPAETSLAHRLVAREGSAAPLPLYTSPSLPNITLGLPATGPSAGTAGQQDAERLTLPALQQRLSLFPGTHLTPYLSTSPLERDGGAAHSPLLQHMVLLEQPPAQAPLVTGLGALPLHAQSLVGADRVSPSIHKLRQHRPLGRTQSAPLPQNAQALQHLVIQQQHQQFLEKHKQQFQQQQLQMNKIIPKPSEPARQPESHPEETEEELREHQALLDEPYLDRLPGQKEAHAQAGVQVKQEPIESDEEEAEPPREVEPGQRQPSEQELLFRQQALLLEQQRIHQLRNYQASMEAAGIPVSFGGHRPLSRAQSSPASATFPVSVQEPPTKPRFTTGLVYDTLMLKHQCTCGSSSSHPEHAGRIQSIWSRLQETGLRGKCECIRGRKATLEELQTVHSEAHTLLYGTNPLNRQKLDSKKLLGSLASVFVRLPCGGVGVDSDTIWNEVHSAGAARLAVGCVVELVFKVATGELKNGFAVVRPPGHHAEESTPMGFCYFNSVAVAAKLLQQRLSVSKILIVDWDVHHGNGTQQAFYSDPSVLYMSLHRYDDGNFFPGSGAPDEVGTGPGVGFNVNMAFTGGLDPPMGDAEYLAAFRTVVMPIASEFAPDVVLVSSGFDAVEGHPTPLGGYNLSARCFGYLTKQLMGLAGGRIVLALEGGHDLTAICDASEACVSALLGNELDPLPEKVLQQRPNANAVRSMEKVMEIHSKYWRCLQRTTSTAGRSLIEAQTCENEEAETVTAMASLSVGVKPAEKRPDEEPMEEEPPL
Chain of Histone deacetylase 1 (Q13547 whole entry): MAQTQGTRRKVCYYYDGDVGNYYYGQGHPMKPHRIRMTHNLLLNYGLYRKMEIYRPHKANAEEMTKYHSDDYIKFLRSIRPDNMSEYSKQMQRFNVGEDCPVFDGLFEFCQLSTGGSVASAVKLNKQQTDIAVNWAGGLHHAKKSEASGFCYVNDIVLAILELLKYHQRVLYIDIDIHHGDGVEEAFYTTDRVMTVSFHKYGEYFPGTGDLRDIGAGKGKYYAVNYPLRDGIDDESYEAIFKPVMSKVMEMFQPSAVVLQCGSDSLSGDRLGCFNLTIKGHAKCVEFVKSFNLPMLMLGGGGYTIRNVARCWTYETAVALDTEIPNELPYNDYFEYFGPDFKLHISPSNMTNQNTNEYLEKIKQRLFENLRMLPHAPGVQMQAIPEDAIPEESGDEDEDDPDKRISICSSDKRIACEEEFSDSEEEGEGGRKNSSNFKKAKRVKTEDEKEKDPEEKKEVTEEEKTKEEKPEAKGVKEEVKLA

| SMILES | IC50 (Histone deacetylase 2) [nM] | IC50 [1] [nM] | IC50 (Histone deacetylase 9) [nM] | IC50 (Histone deacetylase 8) [nM] | inhibition [2] [%] | IC50 (Histone deacetylase 1) [nM] | inhibition [3] [%] | IC50 (Histone deacetylase 4) [nM] | IC50 (Histone deacetylase 3) [nM] |
| --- | --- | --- | --- | --- | --- | --- | --- | --- | --- |
| CC1(C)CC(=O)Nc2ccc(C(=O)NC[C@H]3CC[C@@H](CCC(=O)NO)CC3)cc21 | 25 | 530 | 50 | 24 | 27 | 41 | 97 | 330 | 87 |
| CC1(C)CC(=O)Nc2ccc(C(=O)NCc3ccc(/C=C/C(=O)NO)cc3)cc21 | 22 | 110 | 37 | 49 | 46 | 66 | 98 | 380 | 65 |
| CC1(C)CC(=O)Nc2ccc(C(=O)NCc3cccc(/C=C/C(=O)NO)c3)cc21 | 100 | 290 | 570 | 200 | 22 | 670 | 95 | 2000 | 210 |
